# Several values for one entry are separate records, joined by “and”; a condition that tells them apart may be missing. Equal entries are not always repeated.
# What was measured:
# [1] = Preferred formulation system: stability; format: physicochemical
# Protocol: The final administration formulation is then prepared by diluting this second formulation to the desired concentration with saline.
# [2] = Solubility in a range of solvents on dilution; format: physicochemical
# Protocol: The protocol adopted was as follows:
# A small volume, 1-2 mL, of each solvent system was prepared and a weight of the compound in question was added. The solutions were stirred for approximately 4 hours and then […] membrane filtered. The concentration of the compound in question in the filtrate was then determined by HPLC assay.
# [3] = Clinical testing of 80:20 DMA:0.9% saline formulation; format: in vivo
# [4] = Effect of aqueous dilution on DMA solubility and physical stability; format: physicochemical
# From the text: Table 2 gives the effect of aqueous dilution on DMA solubility
# Solubility in water = format: physicochemical; conditions: regardless of salt content or pH
# [5] = DMA 45.8 mg/mL, 1:3 with 0.9% saline containing […] Tween 80
# [6] = DMA 45.8 mg/mL, 1:4.5 with 0.9% saline containing […] Tween 80
# [7] = DMA 55.0 mg/mL, 1:3 with 0.9% saline containing […] Tween 80
# [8] = DMA 73.3 mg/mL, 1:3 with 0.9% saline containing […] Tween 80
# [9] = DMA […] mg/mL, Solvent:Saline (0.9%) 1:3
# [10] = PEG 400 87.7 mg/mL, 1:1 glucose
# [11] = PEG 400 87.7 mg/mL, 1:2 glucose
# [12] = PEG 400, 45.6 mg/mL, 1:1.5 with 0.9% saline containing […] Tween 80
# [13] = PEG 400, 45.6 mg/mL, 1:2 with 0.9% saline containing […] Tween 80
# [14] = PEG 400, 45.6 mg/mL, 1:2.5 with 0.9% saline containing […] Tween 80
# [15] = PEG 400, 91.2 mg/mL, 1:2 with 0.9% saline containing […] Tween 80
# [16] = PEG 400, 91.2 mg/mL, Solvent:Saline (0.9%) 1:1
# [17] = PEG 400, 91.2 mg/mL, Solvent:Saline (0.9%) 1:2
compound,measurement,setting,value
"C[C@H](NP(=O)(OC[C@H]1O[C@@H](n2ccc(N)nc2=O)C(F)(F)C1O)Oc1ccccc1)C(=O)OCc1ccccc1 (stereo partly drawn) [NUC-1031, 2′-Deoxy-2′,2′-difluoro-D-cytidine-5′-O-[phenyl (benzoxy-L-alaninyl)]phosphate]",stability for storage and transport,[1]; 250 mg/mL in 80:20 (by volume) DMA:0.9% saline,sufficiently stable for long term storage and transport
same,osmolarity,"[1]; 4, 8 and 10 mg/mL in 0.45% and 0.9% saline",acceptable for peripheral administration
same,time stable to precipitation and to degradation after dilution,"[1]; 4, 8 and 10 mg/mL, 0.45% and 0.9% saline, pH 4.5, 6.0 and 7.0, not stirred",48 h
same,Appearance,[2]; [5],Clear
same,NUC-1031 mg/mL HPLC assay filtrate,[2]; [5],11.5 mg/mL
same,Appearance,"[2]; DMA 45.8 mg/mL, 1:3.5 with 0.9% saline containing […] Tween 80",Clear
same,NUC-1031 mg/mL HPLC assay filtrate,"[2]; DMA 45.8 mg/mL, 1:4 with 0.9% saline containing […] Tween 80",8.4 mg/mL
same,Appearance,"[2]; DMA 45.8 mg/mL, 1:4 with 0.9% saline containing […] Tween 80 (precipitates >30 min, stirring precipitate dissolves)",Initially clear
same,Appearance,[2]; [6],Slightly turbid
same,NUC-1031 mg/mL HPLC assay filtrate,[2]; [6],7.2 mg/mL
same,Appearance,[2]; [7],Slightly turbid
same,NUC-1031 mg/mL HPLC assay filtrate,[2]; [7],13.9 mg/mL
same,Appearance,[2]; [8],Precipitation
same,NUC-1031 mg/mL HPLC assay filtrate,[2]; [8],14.7 mg/mL
same,Appearance,"[2]; DMA 92.5 mg/mL, 1:1 glucose",Clear
same,Evidence of further precipitation on storage of filtrate at RT >24 h,"[2]; DMA 92.5 mg/mL, 1:1 glucose",No
same,NUC-1031 mg/mL HPLC assay filtrate,"[2]; DMA 92.5 mg/mL, 1:1 glucose",47.3 mg/mL
same,Appearance,"[2]; DMA 92.5 mg/mL, 1:2 glucose",Slightly turbid
same,Evidence of further precipitation on storage of filtrate at RT >24 h,"[2]; DMA 92.5 mg/mL, 1:2 glucose",Yes
same,NUC-1031 mg/mL HPLC assay filtrate,"[2]; DMA 92.5 mg/mL, 1:2 glucose",29.7 mg/mL
same,Appearance,[2]; [9],Precipitation
same,NUC-1031 mg/mL HPLC assay filtrate,[2]; [9],14.8 mg/mL
same,NUC-1031 mg/mL HPLC assay filtrate,"[2]; DMA […], 1:2 with 0.9% saline containing […] Tween 80",30.9 mg/mL
same,NUC-1031 mg/mL HPLC assay filtrate,"[2]; DMA […], 1:3 with 0.9% saline containing […] Tween 80",15.2 mg/mL
same,NUC-1031 mg/mL HPLC assay filtrate,"[2]; DMA […], Solvent:Saline (0.9%) 1:1",47.0 mg/mL
same,NUC-1031 mg/mL HPLC assay filtrate,"[2]; DMA […], Solvent:Saline (0.9%) 1:2",30.2 mg/mL
same,Appearance,"[2]; NMP 115.0 mg/mL, 1:1 glucose",Slightly turbid
same,Evidence of further precipitation on storage of filtrate at RT >24 h,"[2]; NMP 115.0 mg/mL, 1:1 glucose",No
same,NUC-1031 mg/mL HPLC assay filtrate,"[2]; NMP 115.0 mg/mL, 1:1 glucose",58.5 mg/mL
same,Appearance,"[2]; NMP 115.0 mg/mL, 1:1 saline",Slightly turbid
same,Evidence of further precipitation on storage of filtrate at RT >24 h,"[2]; NMP 115.0 mg/mL, 1:1 saline",No
same,NUC-1031 mg/mL HPLC assay filtrate,"[2]; NMP 115.0 mg/mL, 1:1 saline",60.0 mg/mL
same,Appearance,"[2]; NMP 115.0 mg/mL, 1:2 glucose",Slightly turbid
same,Evidence of further precipitation on storage of filtrate at RT >24 h,"[2]; NMP 115.0 mg/mL, 1:2 glucose",Yes
same,NUC-1031 mg/mL HPLC assay filtrate,"[2]; NMP 115.0 mg/mL, 1:2 glucose",39.6 mg/mL
same,Appearance,"[2]; NMP 115.0 mg/mL, 1:2 saline",Slightly turbid
same,Evidence of further precipitation on storage of filtrate at RT >24 h,"[2]; NMP 115.0 mg/mL, 1:2 saline",Yes
same,NUC-1031 mg/mL HPLC assay filtrate,"[2]; NMP 115.0 mg/mL, 1:2 saline",40.5 mg/mL
same,evidence of precipitation after dilution,"[2]; NMP and DMA solutions, dilution 1:1 with water or saline",did not show any evidence of precipitation
same,Appearance,[2]; [10],Slightly turbid
same,Evidence of further precipitation on storage of filtrate at RT >24 h,[2]; [10],Yes
same,NUC-1031 mg/mL HPLC assay filtrate,[2]; [10],46.1 mg/mL
same,Appearance,[2]; [11],Turbid
same,Evidence of further precipitation on storage of filtrate at RT >24 h,[2]; [11],No
same,NUC-1031 mg/mL HPLC assay filtrate,[2]; [11],17.4 mg/mL
same,Appearance,[2]; [12],Clear
same,Evidence of further precipitation on storage of filtrate at RT >24 h,[2]; [12],Yes
same,Appearance,[2]; [13],Clear
same,Evidence of further precipitation on storage of filtrate at RT >24 h,[2]; [13],Yes
same,Appearance,[2]; [14],"Precipitation,"
same,Evidence of further precipitation on storage of filtrate at RT >24 h,[2]; [14],Yes
same,NUC-1031 mg/mL HPLC assay filtrate,[2]; [14],10.5 mg/mL
same,Appearance,[2]; [15],Slightly turbid
same,Evidence of further precipitation on storage of filtrate at RT >24 h,[2]; [15],Yes
same,NUC-1031 mg/mL HPLC assay filtrate,[2]; [15],18.8 mg/mL
same,Appearance,[2]; [16],Clear
same,Evidence of further precipitation on storage of filtrate at RT >24 h,[2]; [16],Yes
same,Appearance,[2]; [17],Precipitation
same,Evidence of further precipitation on storage of filtrate at RT >24 h,[2]; [17],Yes
same,NUC-1031 mg/mL HPLC assay filtrate,[2]; [17],16.2 mg/mL
same,treatment outcome in the clinical study,"[3]; 250 mg NUC-1031 in 80:20 DMA:0.9% saline solution, 5 ml vial",successful treatment
same,tolerability of injection,"[3]; 250 mg NUC-1031 in 80:20 DMA:0.9% saline, needed to be administered by a central line",pain on injection
same,Assay,[4]; 50:50 DMA:0.9% Saline,66 mg/mL
same,Precipitation > 24 hours,[4]; 50:50 DMA:0.9% Saline,Yes
same,Assay,[4]; 60:40 DMA:0.9% Saline,293 mg/mL
same,Precipitation > 24 hours,[4]; 60:40 DMA:0.9% Saline,Yes
same,Assay,[4]; 70:30 DMA:0.9% Saline,339 mg/mL
same,Precipitation > 24 hours,[4]; 70:30 DMA:0.9% Saline,Yes
same,Precipitation (2 weeks),"[4]; 80:20 DMA in 0.9% Saline, assay 270 mg/ml",Yes
same,Precipitation (2 weeks),"[4]; 80:20 DMA in 0.9% Saline, assay 272 mg/ml",No
same,Precipitation (2 weeks),"[4]; 80:20 DMA in 0.9% Saline, assay 315 mg/ml",Yes
same,Assay,[4]; 80:20 DMA:0.9% Saline,386 mg/mL
same,Precipitation > 24 hours,[4]; 80:20 DMA:0.9% Saline,Yes
same,Precipitation (2 weeks),"[4]; 85:15 DMA in 0.9% Saline, assay 338 mg/ml",No
same,Assay,[4]; 90:10 DMA:0.9% Saline,483 mg/mL
same,Precipitation > 24 hours,[4]; 90:10 DMA:0.9% Saline,No
same,Assay,[4]; 95:5 DMA:0.9% Saline,518 mg/mL
same,Precipitation > 24 hours,[4]; 95:5 DMA:0.9% Saline,No
same,Assay,[4]; 100% DMA,592 mg/mL
same,Precipitation > 24 hours,[4]; 100% DMA,No
same,Assay,"[4]; Table 2a, 80:20 DMA solution in 0.9% Saline",304 mg/mL and 272 mg/mL and 315 mg/mL and 270 mg/mL
same,Assay,"[4]; Table 2a, 85:15 DMA solution in 0.9% Saline",338 mg/mL
same,solubility in water,Solubility in water,essentially insoluble in water

# From US11707477B2, “Formulation comprising a gemcitabine-prodrug” (NuCana plc, priority 2014, dated 2023)
